Tests used:
[1] = molecular target: T1, Prostaglandin D2 receptor (Homo sapiens, UniProt Q13258); assay: Inhibition of [3H]-PGD-2 binding to human Prostaglandin D2 receptor
T1 sequence (Q13258 whole entry): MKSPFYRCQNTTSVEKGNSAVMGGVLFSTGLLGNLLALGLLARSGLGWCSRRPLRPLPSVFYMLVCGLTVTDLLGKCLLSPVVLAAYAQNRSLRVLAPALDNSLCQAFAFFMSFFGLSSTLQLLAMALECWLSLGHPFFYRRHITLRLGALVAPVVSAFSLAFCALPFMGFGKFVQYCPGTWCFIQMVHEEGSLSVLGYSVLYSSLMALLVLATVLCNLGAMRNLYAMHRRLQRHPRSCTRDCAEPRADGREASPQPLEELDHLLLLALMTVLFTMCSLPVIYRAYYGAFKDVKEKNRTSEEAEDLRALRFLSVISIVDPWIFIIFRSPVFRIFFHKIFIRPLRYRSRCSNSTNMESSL

[2] = molecular target: T1, Prostaglandin D2 receptor; assay: Inhibition of PGD2-induced inositol phosphate formation at human Prostaglandin D2 receptor; assay type: functional
Thromboxane A2 receptor [3] = molecular target: T2, Thromboxane A2 receptor (Homo sapiens, UniProt P21731); assay: Inhibition of [3H]SQ-29,548 binding to human Thromboxane A2 receptor
T2 sequence (P21731 whole entry): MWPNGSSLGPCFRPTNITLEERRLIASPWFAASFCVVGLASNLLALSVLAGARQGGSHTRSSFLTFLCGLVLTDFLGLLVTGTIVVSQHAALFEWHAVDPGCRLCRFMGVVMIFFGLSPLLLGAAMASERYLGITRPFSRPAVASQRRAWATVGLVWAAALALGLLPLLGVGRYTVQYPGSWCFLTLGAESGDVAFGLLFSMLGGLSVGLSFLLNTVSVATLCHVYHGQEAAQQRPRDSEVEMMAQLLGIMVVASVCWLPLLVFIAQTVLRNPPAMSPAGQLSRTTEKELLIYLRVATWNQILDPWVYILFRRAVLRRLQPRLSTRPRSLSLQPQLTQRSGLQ

[4] = molecular target: T3, Prostaglandin D2 receptor 2 (Homo sapiens, UniProt Q9Y5Y4); assay: Inhibition of PGD2-induced inositol phosphate formation at human chemoattractant receptor-homologous molecule expressed on TH2 cells; assay type: functional, cell-based
T3 sequence (Q9Y5Y4 whole entry): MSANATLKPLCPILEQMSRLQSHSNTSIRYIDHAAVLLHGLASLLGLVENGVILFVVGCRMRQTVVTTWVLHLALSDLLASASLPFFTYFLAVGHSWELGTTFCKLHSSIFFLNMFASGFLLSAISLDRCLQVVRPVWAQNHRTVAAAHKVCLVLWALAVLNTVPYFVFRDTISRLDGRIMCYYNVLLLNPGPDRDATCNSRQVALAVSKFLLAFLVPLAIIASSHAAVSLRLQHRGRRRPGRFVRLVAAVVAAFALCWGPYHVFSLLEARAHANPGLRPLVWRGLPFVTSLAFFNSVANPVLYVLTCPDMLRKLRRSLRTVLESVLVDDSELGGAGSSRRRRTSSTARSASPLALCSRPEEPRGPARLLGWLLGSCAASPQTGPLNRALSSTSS

[5] = molecular target: T3, Prostaglandin D2 receptor 2; assay: Inhibition of beta-arrestin translocation at human chemoattractant receptor-homologous molecule expressed on TH2 cells in BRET assay; assay type: functional, cell-based
Thromboxane A2 receptor [6] = molecular target: T2, Thromboxane A2 receptor; assay: Inhibition of U-46,619-induced inositol phosphate accumulation at human Thromboxane A2 receptor; assay type: functional
[7] = molecular target: T3, Prostaglandin D2 receptor 2; assay: Inhibition of [3H]PGD-2 binding to human chemoattractant receptor-homologous molecule expressed on Th2 cells (CRTH2); assay type: cell-based
Thromboxane A2 receptor [8] = molecular target: T2, Thromboxane A2 receptor; assay: Inhibition of beta-arrestin translocation at human Thromboxane A2 receptor in BRET assay; assay type: functional

| Ki [1] | IC50 [2] | Ki (Thromboxane A2 receptor [3]) | IC50 [4] | IC50 [5] | IC50 (Thromboxane A2 receptor [6]) | Ki [7] | IC50 (Thromboxane A2 receptor [8]) | Structure (SMILES) |
| --- | --- | --- | --- | --- | --- | --- | --- | --- |
| 5.3 µM | > 10 µM | 540 nM | 3.8 nM | 3.8 nM | 1700 nM | 0.51 nM | – | O=C(O)Cn1c2c(c3ccccc31)C[C@H](NS(=O)(=O)c1ccc(F)cc1)CC2 |
| 6.1 µM | > 10 µM | 3000 nM | 26 nM | 15 nM | 4600 nM | 1.9 nM | – | CN([C@@H]1CCc2c(c3ccccc3n2CCC(=O)O)C1)S(=O)(=O)c1ccc(F)cc1 |
| > 10 µM | > 10 µM | 4.5 nM | 29 nM | 28 nM | 9.6 nM | 4.3 nM | 8.4 nM | O=C(O)CCn1c2c(c3ccccc31)C[C@H](NS(=O)(=O)c1ccc(F)cc1)CC2 [RAMATROBAN] |

From ChEMBL document CHEMBL1144406 (J Med Chem, 2005)
